This note sets out measurements from ChEMBL document CHEMBL1127036, “Design of antineoplastic agents on the basis of the "2-phenylnaphthalene-type" structural pattern. 2. Synthesis and biological activity studies of benzo]b]naphtho[2,3-d]furan-6,11-dione derivatives” (J Med Chem, 1993).

Holding throughout (assay type): functional, cell-based
The test system of test [1] is CCRF-CEM. Briefly: Tested for inhibition against CEM cells. The note with it: Homo sapiens.
Test [2] relates to Tumor Cell line. As to the kind of experiment: Tested for the inhibition of human cancer cell growth (NCI drug-discovery screen.).
The test system of test [3] is CCRF-CEM. Briefly: Tested for inhibition against CEM/MDR (multidrug resistant) cells. The note with it: Homo sapiens.
Another test has as its system N592. Briefly: Cytotoxicity against human small-cell lung cancer (SCLC).
Test [4] in a line: Cytotoxicity against human SCLC cells resistant to cisplatin (SCLC/CDDP).
In the next test the test system is HL-60. As to the kind of experiment: Tested for inhibition against human promyelocytic leukemia cells (HL-60 ).
Test [5] relates to Tumor Cell line. As to the kind of experiment: Tested for the inhibition of human cancer cell growth (NCI drug-discovery screen.); Inactive.

Calls of active or inactive are those of the source. No cut-off for these calls is given here. Bounds are passed on as bounds.

For `O=C1c2ccccc2C(=O)c2c1oc1cc(O)cc(O)c21`, the IC50 in the test on CCRF-CEM [1] is 0.5 µM; in the test on Tumor Cell line [2], 1 µM; in the test with CCRF-CEM [3], 0.6 µM; in the test with N592 (Homo sapiens, N592), 1.03 µM; in test [4] (Homo sapiens, SCLC), 1.28 µM; with HL-60, 0.22 µM.

Turning to `CN(C)CCCOc1cc(O)c2c3c(oc2c1)C(=O)c1ccccc1C3=O`, the IC50 in the test on Tumor Cell line [2] is 0.1 µM; with N592 (Homo sapiens, N592) it was 0.68 µM; in test [4] (Homo sapiens, SCLC) it was 0.68 µM; with HL-60, 0.045 µM.

As for `CN(C)CCCOc1ccc2c3c(oc2c1)C(=O)c1ccccc1C3=O`, the IC50 in the test with Tumor Cell line [2] was 10 µM; with N592 (Homo sapiens, N592), 1.3 µM; in test [4] (Homo sapiens, SCLC), 2.6 µM; with HL-60 it was 0.34 µM.

`O=c1[nH]cc(F)c(=O)[nH]1` [FLUOROURACIL]: the 50% inhibitory concentration (IC50) in the test on N592 (Homo sapiens, N592) turned out to be 5.4 µM; in test [4] (Homo sapiens, SCLC), 8.4 µM.

Take `CN(C)CCOc1cc(O)c2c3c(oc2c1)C(=O)c1ccccc1C3=O`: the IC50 in the test on Tumor Cell line [2] is 0.1 µM; with N592 (Homo sapiens, N592) it was 2.13 µM; in test [4] (Homo sapiens, SCLC) it was 2.56 µM; in the test with HL-60 it was 0.046 µM.

As to `CN(C)CCCOc1cc2oc3c(c2c2ccccc12)C(=O)c1ccccc1C3=O`, the “Log IC50” value in the test on Tumor Cell line [5] was “inactive”. Also, the IC50 in the test with N592 (Homo sapiens, N592) was above 2.5 µM; in test [4] (Homo sapiens, SCLC) it was above 2.5 µM; in the test on HL-60, 1.39 µM.

For the molecule CISPLATIN, the IC50 stood at 0.67 µM in the test on N592 (n592) and 6.7 µM in test [4] (sclc).

Consider `O=C1c2ccccc2C(=O)c2c1oc1cc(O)c(Cl)cc21`, for which the IC50 is 10 µM with Tumor Cell line [2]; above 3.4 µM with N592 (Homo sapiens, N592); above 3.4 µM in test [4] (Homo sapiens, SCLC); 6.09 µM in the test on HL-60.

Consider `CC(C)N(CCOc1cc(O)c2c3c(oc2c1)C(=O)c1ccccc1C3=O)C(C)C`, for which the IC50 in the test with Tumor Cell line [2] was 1 µM; in the test with N592 (Homo sapiens, N592), 0.22 µM; in test [4] (Homo sapiens, SCLC), 1.13 µM; in the test with HL-60, 0.089 µM.

In the case of `CN(C)CCOc1cc2oc3c(c2c2ccccc12)C(=O)c1ccccc1C3=O`, the “Log IC50” value with Tumor Cell line [5] is “inactive”. In addition, the IC50 was 1.3 µM in the test on N592 (Homo sapiens, N592); 1.95 µM in test [4] (Homo sapiens, SCLC); 0.87 µM in the test on HL-60.

`CN(C)CCCOc1cc2oc3c(c2cc1Cl)C(=O)c1ccccc1C3=O`: the IC50 in the test with CCRF-CEM [1] is 0.17 µM; in the test on Tumor Cell line [2], 10 µM; in the test with CCRF-CEM [3], 0.15 µM; in the test on N592 (Homo sapiens, N592) it was 0.59 µM; in test [4] (Homo sapiens, SCLC), 0.59 µM; with HL-60, 0.28 µM.

`COc1cccc2c1C(=O)c1c(O)c3c(c(O)c1C2=O)C[C@@](O)(C(=O)CO)C[C@@H]3O[C@H]1C[C@H](N)[C@H](O)[C@H](C)O1` [DOXORUBICIN]: the IC50 in the test on N592 (Homo sapiens, N592) was found to be 0.04 µM; in test [4] (Homo sapiens, SCLC), 0.03 µM.

In the case of `CN(C)CCOc1cc2oc3c(c2cc1Cl)C(=O)c1ccccc1C3=O`, the IC50 with CCRF-CEM [1] was 0.25 µM; in the test with Tumor Cell line [2], 1 µM; with CCRF-CEM [3], 0.3 µM; with N592 (Homo sapiens, N592), 0.37 µM; in test [4] (Homo sapiens, SCLC) it was 0.62 µM; in the test on HL-60 it was 0.24 µM.

Consider `CC[C@]1(O)C[C@@H]2CN(CCc3c([nH]c4ccccc34)[C@@](C(=O)OC)(c3cc4c(cc3OC)N(C)[C@H]3[C@@](O)(C(=O)OC)[C@H](OC(C)=O)[C@]5(CC)C=CCN6CC[C@]43[C@@H]65)C2)C1` [VINBLASTINE], for which the IC50 was determined as 0.004 µM in the test with N592 (Homo sapiens, N592) and 0.005 µM in test [4] (Homo sapiens, SCLC).

Turning to `O=C1c2ccccc2C(=O)c2c1oc1cc(O)ccc21`, the IC50 with Tumor Cell line [2] is 10 µM; with N592 (Homo sapiens, N592) it was above 3.8 µM; in test [4] (Homo sapiens, SCLC) it was above 3.8 µM; in the test on HL-60, 7.78 µM.

For the molecule `CN(C)CCOc1ccc2c3c(oc2c1)C(=O)c1ccccc1C3=O`, the IC50 was 0.2 µM with CCRF-CEM [1]; 10 µM in the test with Tumor Cell line [2]; 0.15 µM in the test on CCRF-CEM [3]; 0.73 µM with N592 (Homo sapiens, N592); 0.94 µM in test [4] (Homo sapiens, SCLC); 0.3 µM with HL-60.

`O=C1c2ccccc2C(=O)c2c1oc1cc3c(cc21)OCO3`: the IC50 was above 40.3 µM in the test on N592 (Homo sapiens, N592); above 40.3 µM in test [4] (Homo sapiens, SCLC); above 100 µM in the test on HL-60.

In the case of `O=C1c2ccccc2C(=O)c2c1oc1cc(O)c3ccccc3c21`, the IC50 in the test on N592 (Homo sapiens, N592) was above 3.2 µM; in test [4] (Homo sapiens, SCLC), above 3.2 µM; with HL-60, 80.6 µM.

`Cc1cc(OCCN(C)C)cc2oc3c(c12)C(=O)c1ccccc1C3=O`: the IC50 was above 2.6 µM in the test with N592 (Homo sapiens, N592); above 2.6 µM in test [4] (Homo sapiens, SCLC); 1.8 µM in the test on HL-60.

Take `CCN(CC)CCOc1cc(O)c2c3c(oc2c1)C(=O)c1ccccc1C3=O`: the IC50 is 0.1 µM with Tumor Cell line [2]; 0.24 µM in the test on N592 (Homo sapiens, N592); 0.48 µM in test [4] (Homo sapiens, SCLC); 0.098 µM in the test with HL-60.

With `O=C1c2c(O)ccc(O)c2C(=O)c2c(NCCNCCO)ccc(NCCNCCO)c21` [MITOXANTRONE], the IC50 in the test on N592 (Homo sapiens, N592) came out at 0.02 µM; in test [4] (Homo sapiens, SCLC), 0.03 µM.

`COc1cc([C@@H]2c3cc4c(cc3[C@@H](O[C@@H]3O[C@@H]5CO[C@@H](C)O[C@H]5[C@H](O)[C@H]3O)[C@H]3COC(=O)[C@H]23)OCO4)cc(OC)c1O` [ETOPOSIDE]: the IC50 with N592 (Homo sapiens, N592) was determined as 0.5 µM; in test [4] (Homo sapiens, SCLC), 1.3 µM.

On to `Cc1cc(O)cc2oc3c(c12)C(=O)c1ccccc1C3=O`, for which, in the test on Tumor Cell line [5], the “Log IC50” value was “inactive”. The IC50 is above 3.5 µM in the test on N592 (Homo sapiens, N592); above 3.5 µM in test [4] (Homo sapiens, SCLC); 6.65 µM in the test with HL-60.
